Test results taken from PubChem BioAssay AID256 (DTP/NCI, 2004).
Where “and” joins values, the source holds several entries; their conditions need not be identical. Equal entries are not always repeated. Inconclusive results and toxic doses are left out.

Test system: CD2F1 mice, L1210 leukemia ip, survival T/C
Experiment: NCI In Vivo Anticancer Drug Screen. Data for tumor model L1210 Leukemia (intraperitoneal) in CD2F1 (CDF1) mice
Details: higher = longer survival
Procedure, shortened: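 Antitumor effect is scored in animals hosting a serially transplanted tumor. Values compare compound-dosed animals against vehicle-only controls as a simple quotient.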

[1] = endpoint: mean survival time, dose: 100.0 mg/kg/injection, schedule: Q01DX009 (ip), vehicle: saline with Tween-80
[2] = endpoint: mean survival time, dose: 200.0 mg/kg/injection, schedule: Q01DX009 (ip), vehicle: saline with Tween-80
[3] = endpoint: mean survival time, dose: 400.0 mg/kg/injection, schedule: Q01DX009 (ip), vehicle: saline with Tween-80
[4] = endpoint: mean survival time, dose: 100.0 mg/kg/injection, schedule: Q04DX003 (ip), vehicle: saline with Tween-80
[5] = endpoint: mean survival time, dose: 200.0 mg/kg/injection, schedule: Q04DX003 (ip), vehicle: saline with Tween-80
[6] = endpoint: mean survival time, dose: 400.0 mg/kg/injection, schedule: Q04DX003 (ip), vehicle: saline with Tween-80
[7] = endpoint: mean survival time, dose: 100.0 mg/kg/injection, schedule: Q01DX001 (ip), vehicle: saline
[8] = endpoint: mean survival time, dose: 200.0 mg/kg/injection, schedule: Q01DX001 (ip), vehicle: saline
[9] = endpoint: mean survival time, dose: 400.0 mg/kg/injection, schedule: Q01DX001 (ip), vehicle: saline

SMILES: O=c1[nH]c(=O)n(C2CC(O)C(CO)O2)cc1/C=C/c1cccc([N+](=O)[O-])c1 (centres undefined)
- T/C (endpoint: mean survival time, dose: 6.25 mg/kg/injection, schedule: Q01DX005 (ip), vehicle: distilled water + Tween-80): 98 % of control
- T/C (endpoint: mean survival time, dose: 12.5 mg/kg/injection, schedule: Q01DX005 (ip), vehicle: distilled water + Tween-80): 97 % of control
- T/C (endpoint: mean survival time, dose: 25.0 mg/kg/injection, schedule: Q01DX005 (ip), vehicle: distilled water + Tween-80): 95 % of control
- T/C (endpoint: mean survival time, dose: 50.0 mg/kg/injection, schedule: Q01DX005 (ip), vehicle: distilled water + Tween-80): 93 % of control
- T/C (endpoint: mean survival time, dose: 100.0 mg/kg/injection, schedule: Q01DX005 (ip), vehicle: distilled water + Tween-80): 94 % of control

SMILES: NNC(=O)c1nc2ccccc2s1
- T/C (endpoint: mean survival time, dose: 37.5 mg/kg/injection, schedule: Q04DX003 (ip), vehicle: saline sonified): 97 % of control
- T/C (endpoint: mean survival time, dose: 75.0 mg/kg/injection, schedule: Q04DX003 (ip), vehicle: saline sonified): 92 % of control
- T/C (endpoint: mean survival time, dose: 150.0 mg/kg/injection, schedule: Q04DX003 (ip), vehicle: saline sonified): 94 % of control

SMILES: CNCCN1CCC(Cc2ccccc2)CC1
- T/C (endpoint: mean survival time, dose: 50.0 mg/kg/injection, schedule: Q01DX009 (ip), vehicle: saline): 102 % of control
- T/C (endpoint: mean survival time, dose: 100.0 mg/kg/injection, schedule: Q01DX009 (ip), vehicle: saline): 100 % of control
- T/C (endpoint: mean survival time, dose: 200.0 mg/kg/injection, schedule: Q01DX009 (ip), vehicle: saline): 106 % of control

SMILES: CC(=O)C1CC2c3ccccc3C1c1ccccc12 (centres undefined)
- T/C [1]: 98 % of control
- T/C (endpoint: mean survival time, dose: 100.0 mg/kg/injection, schedule: Q04DX003 (ip), vehicle: saline sonified): 100 % of control
- T/C [2]: 98 % of control
- T/C (endpoint: mean survival time, dose: 200.0 mg/kg/injection, schedule: Q04DX003 (ip), vehicle: saline sonified): 98 % of control
- T/C [3]: 95 % of control
- T/C (endpoint: mean survival time, dose: 400.0 mg/kg/injection, schedule: Q04DX003 (ip), vehicle: saline sonified): 91 % of control

SMILES: CCOC(=O)c1cc([N+](=O)[O-])c(Sc2ncnc3nc[nH]c23)c([N+](=O)[O-])c1
- T/C (endpoint: mean survival time, dose: 0.63 mg/kg/injection, schedule: Q01DX005 (ip), vehicle: other): 104 % of control
- T/C (endpoint: mean survival time, dose: 1.25 mg/kg/injection, schedule: Q01DX005 (ip), vehicle: other): 109 % of control
- T/C (endpoint: mean survival time, dose: 2.5 mg/kg/injection, schedule: Q01DX005 (ip), vehicle: other): 101 % of control
- T/C (endpoint: mean survival time, dose: 5.0 mg/kg/injection, schedule: Q01DX005 (ip), vehicle: other): 114 % of control
- T/C (endpoint: mean survival time, dose: 10.0 mg/kg/injection, schedule: Q01DX005 (ip), vehicle: other): 114 % of control
- T/C (endpoint: mean survival time, dose: 20.0 mg/kg/injection, schedule: Q01DX005 (ip), vehicle: other): 113 % of control
- T/C (endpoint: mean survival time, dose: 40.0 mg/kg/injection, schedule: Q01DX005 (ip), vehicle: other): 120 % of control
- T/C (endpoint: mean survival time, dose: 80.0 mg/kg/injection, schedule: Q01DX005 (ip), vehicle: other): 117 % of control

SMILES: OC(c1ccccc1)(c1ccccc1)C(Cc1ccccc1)Cc1ccccc1
- T/C [4]: 102 % of control
- T/C [5]: 100 % of control
- T/C [6]: 94 % of control

SMILES: COC(CNC1=C(C)C(=O)C2=C(C1=O)[C@H](COC(N)=O)[C@]1(OC)[C@@H]3N[C@@H]3CN21)OC
- T/C (endpoint: mean survival time, dose: 1.5 mg/kg/injection, schedule: Q01DX001 (ip), vehicle: water): 118 % of control
- T/C (endpoint: mean survival time, dose: 3.0 mg/kg/injection, schedule: Q01DX001 (ip), vehicle: water): 119 % of control and 109 % of control
- T/C (endpoint: mean survival time, dose: 6.0 mg/kg/injection, schedule: Q01DX001 (ip), vehicle: water): 119 % of control
- T/C (endpoint: mean survival time, dose: 24.0 mg/kg/injection, schedule: Q01DX001 (ip), vehicle: water): 151 % of control and 296 % of control
- T/C (endpoint: mean survival time, dose: 48.0 mg/kg/injection, schedule: Q01DX001 (ip), vehicle: water): 86 % of control

SMILES: Nc1nc(N)c2[nH]cnc2n1
- T/C (endpoint: mean survival time, dose: 12.5 mg/kg/injection, schedule: Q01DX005 (ip), vehicle: Klucel (hydroxypropylcellulose) (HPC)): 101 % of control
- T/C (endpoint: mean survival time, dose: 25.0 mg/kg/injection, schedule: Q01DX005 (ip), vehicle: Klucel (hydroxypropylcellulose) (HPC)): 101 % of control
- T/C (endpoint: mean survival time, dose: 50.0 mg/kg/injection, schedule: Q01DX005 (ip), vehicle: Klucel (hydroxypropylcellulose) (HPC)): 106 % of control
- T/C (endpoint: mean survival time, dose: 50.0 mg/kg/injection, schedule: Q04DX003 (ip), vehicle: saline with Tween-80): 95 % of control
- T/C (endpoint: mean survival time, dose: 100.0 mg/kg/injection, schedule: Q01DX005 (ip), vehicle: Klucel (hydroxypropylcellulose) (HPC)): 110 % of control
- T/C [4]: 95 % of control
- T/C [5]: 97 % of control
- T/C [6]: 97 % of control

SMILES: O=C(NN(C(=O)c1ccccc1)c1ccccc1)c1ccccc1
- T/C (endpoint: mean survival time, dose: 100.0 mg/kg/injection, schedule: Q04DX002 (ip), vehicle: saline with Tween-80): 100 % of control
- T/C (endpoint: mean survival time, dose: 200.0 mg/kg/injection, schedule: Q04DX002 (ip), vehicle: saline with Tween-80): 107 % of control
- T/C (endpoint: mean survival time, dose: 400.0 mg/kg/injection, schedule: Q04DX002 (ip), vehicle: saline with Tween-80): 103 % of control

SMILES: C=C(C)C1(Cc2ccccc2)C(=O)NC(=O)NC1=O
- T/C (endpoint: mean survival time, dose: 5.0 mg/kg/injection, schedule: Q01DX001 (ip), vehicle: saline): 100 % of control
- T/C (endpoint: mean survival time, dose: 10.0 mg/kg/injection, schedule: Q01DX001 (ip), vehicle: saline): 97 % of control
- T/C (endpoint: mean survival time, dose: 20.0 mg/kg/injection, schedule: Q01DX001 (ip), vehicle: saline): 100 % of control
- T/C (endpoint: mean survival time, dose: 40.0 mg/kg/injection, schedule: Q01DX001 (ip), vehicle: saline): 102 % of control

SMILES: O=[N+]([O-])c1cccc(C=Nc2ccc3c(c2)C(Br)c2ccccc2-3)c1 (centres undefined)
- T/C [4]: 97 % of control
- T/C [5]: 90 % of control

SMILES: CCCCCCCCCCCCCCCC(=O)N(CCCN(C)C)c1ccc(N(CCCN(C)C)C(=O)CCCCCCCCCCCCCCC)cc1
- T/C (endpoint: mean survival time, dose: 1.5 mg/kg/injection, schedule: Q01DX009 (ip), vehicle: saline sonified): 98 % of control
- T/C (endpoint: mean survival time, dose: 3.0 mg/kg/injection, schedule: Q01DX009 (ip), vehicle: saline sonified): 101 % of control
- T/C (endpoint: mean survival time, dose: 6.0 mg/kg/injection, schedule: Q01DX009 (ip), vehicle: saline sonified): 98 % of control

SMILES: COC1CCC2CCN(C)C(Cc3ccc(Oc4ccc(CC5C6CC(OC)CCC6CCN5C)cc4)cc3)C2C1 (centres undefined)
- T/C (endpoint: mean survival time, dose: 1.56 mg/kg/injection, schedule: Q04DX002 (ip), vehicle: saline with Tween-80): 90 % of control
- T/C (endpoint: mean survival time, dose: 3.13 mg/kg/injection, schedule: Q04DX002 (ip), vehicle: saline with Tween-80): 94 % of control

SMILES: O=P(OCCCl)(OCCCl)C(Cl)Cl
- T/C [7]: 96 % of control
- T/C [8]: 100 % of control
- T/C [9]: 97 % of control

SMILES: Clc1cccc(Cl)c1C(Nc1nncs1)Nc1nncs1
- T/C (endpoint: median survival time, dose: 25.0 mg/kg/injection, schedule: Q01DX005 (ip), vehicle: saline with Tween-80): 113 % of control
- T/C (endpoint: median survival time, dose: 144.0 mg/kg/injection, schedule: Q01DX005 (ip), vehicle: saline with Tween-80): 151 % of control
- T/C (endpoint: median survival time, dose: 240.0 mg/kg/injection, schedule: Q01DX005 (ip), vehicle: saline with Tween-80): 171 % of control
- T/C (endpoint: median survival time, dose: 400.0 mg/kg/injection, schedule: Q01DX005 (ip), vehicle: saline with Tween-80): 192 % of control and 223 % of control

SMILES: CC([NH-])C([NH-])O.O=[N+]([O-])O.O=[N+]([O-])O.[Pt+2] (centres undefined)
- T/C (endpoint: mean survival time, dose: 12.5 mg/kg/injection, schedule: Q04DX003 (ip), vehicle: saline): 170 % of control
- T/C (endpoint: mean survival time, dose: 25.0 mg/kg/injection, schedule: Q04DX003 (ip), vehicle: saline): 158 % of control

SMILES: Cc1cc2c(Cl)ncnc2[nH]1
- T/C (endpoint: median survival time, dose: 25.0 mg/kg/injection, schedule: Q01DX005 (ip), vehicle: saline): 95 % of control
- T/C (endpoint: median survival time, dose: 50.0 mg/kg/injection, schedule: Q01DX005 (ip), vehicle: saline): 90 % of control
- T/C (endpoint: median survival time, dose: 100.0 mg/kg/injection, schedule: Q01DX005 (ip), vehicle: saline): 101 % of control

SMILES: O=C(Nc1ccc(Oc2ccccc2)cc1)c1ccc(C(=O)Nc2ccc(Oc3ccccc3)cc2)cc1
- T/C [7]: 92 % of control
- T/C [8]: 92 % of control
- T/C [9]: 95 % of control

SMILES: CC1(C)N=C(N)N=C(N)N1c1cccc(Cl)c1Cl
- T/C (endpoint: mean survival time, dose: 5.0 mg/kg/injection, schedule: Q04DX003 (ip), vehicle: saline): 105 % of control
- T/C (endpoint: mean survival time, dose: 10.0 mg/kg/injection, schedule: Q04DX003 (ip), vehicle: saline): 112 % of control
- T/C (endpoint: mean survival time, dose: 20.0 mg/kg/injection, schedule: Q04DX003 (ip), vehicle: saline): 115 % of control

SMILES: CCCCOC(=O)CCC(NC(=O)c1ccc(N(C)Cc2cnc3nc(N)nc(N)c3n2)cc1)C(=O)O (centres undefined)
- T/C (endpoint: mean survival time, dose: 0.19 mg/kg/injection, schedule: Q01DX009 (ip), vehicle: water): 112 % of control
- T/C (endpoint: mean survival time, dose: 0.38 mg/kg/injection, schedule: Q01DX009 (ip), vehicle: water): 120 % of control
- T/C (endpoint: mean survival time, dose: 1.5 mg/kg/injection, schedule: Q01DX009 (ip), vehicle: water): 159 % of control
- T/C (endpoint: mean survival time, dose: 3.0 mg/kg/injection, schedule: Q01DX009 (ip), vehicle: water): 180 % of control
- T/C (endpoint: mean survival time, dose: 6.0 mg/kg/injection, schedule: Q01DX009 (ip), vehicle: water): 86 % of control

SMILES: COC(=O)CCCCCCCCO
- T/C [1]: 109 % of control
- T/C [4]: 97 % of control
- T/C [2]: 101 % of control
- T/C [5]: 95 % of control
- T/C [3]: 104 % of control
- T/C [6]: 90 % of control
